Literature values in US6043366A (priority 1997, dated 2000).

Key:
LC 132 receptor = conditions: cells in culture

OFQ: seventeen amino-acid-long peptide (F-G-G-F-T-G-A-R-K-S-A-R-K-L-A-N-Q), isolated from rat brain, natural ligand to the G-protein coupled receptor OFQ-R (FGGFTGARKSARKLANQ; Nociceptin; UniProt Q13519 130-146, looked up)
hyperalgesia (mice; administered intra-cerebroventricularly to mice): induces hyperalgesia
locomotive activity (mice; injected intra-cerebroventricularly in mice): slowed down locomotive activity
adenylate cyclase in CHO(LC 132+) cells (LC 132 receptor): inhibits adenylate cyclase
